Laboratory results reported in US8993591B2, “1,2,4-triazolo[4,3-a] pyridine derivatives and their use as positive allosteric modulators of MGLUR2 receptors” (Janssen Pharmaceuticals, Inc., priority 2010, dated 2015).

Molecular target: T1, human mGluR2 receptor (Homo sapiens, UniProt Q14416)
T1 construct: expressed in transfected cells; host or cells: CHO cells (membranes)
Test: [35S]GTPγS binding assay, mGluR2 positive allosteric modulation (PAM)
Format: biochemical
Details: membranes from CHO cells transfected with human mGluR2, in presence of glutamate at EC20; for EC50: -log EC50 with EC50 in M, read-out: GTPγS - hmGluR2 PAM pEC50 (converted); for Emax: maximal % effect relative to the control glutamate response, read-out: GTPγS - hmGluR2 PAM Emax
Experimental: The [^35S]GTPγS binding assay is a functional membrane-based assay used to study G-protein coupled receptor (GPCR) function whereby incorporation of a non-hydrolysable form of GTP, [^35S]GTPγS (guanosine 5′-triphosphate, labelled with […] ^35S), is measured. The G-protein α subunit catalyzes the exchange of guanosine 5′-diphosphate (GDP) by guanosine triphosphate (GTP) and on activation of the GPCR by an agonist, [^35S]GTPγS, becomes incorporated and cannot be cleaved to continue the exchange cycle (Harper (1998) Current Protocols in Pharmacology 2.6.1-10, John Wiley & Sons, Inc.). […] Here we describe the use of the [^35S]GTPγS binding assay using membranes from cells transfected with the human mGluR2 receptor and adapted from Schaffhauser et al. ((2003) Molecular Pharmacology 4:798-810) for the detection of the positive allosteric modulation (PAM) properties of the compounds of this invention.
CHO-cells were cultured to pre-confluence and stimulated with 5 mM butyrate for 24 h. Cells were then collected by scraping in PBS and cell suspension was centrifuged (10 min at 4000 RPM in benchtop centrifuge). Supernatant was discarded and pellet gently resuspended in 50 mM Tris-HCl, pH 7.4 by mixing with a vortex and pipetting up and down. The suspension was centrifuged at 16,000 RPM (Sorvall RC-5C plus rotor SS-34) for 10 minutes and the supernatant discarded. The pellet was homogenized in 5 mM Tris-HCl, pH 7.4 using an ultra-turrax homogenizer and centrifuged again (18,000 RPM, 20 min, 4° C.). The final pellet was resuspended in 50 mM Tris-HCl, pH 7.4 and stored at −80° C. in appropriate aliquots before use. Protein concentration was determined by the Bradford method (Bio-Rad, USA) with bovine serum albumin as standard.
Measurement of mGluR2 positive allosteric modulatory activity of test compounds was performed as follows. Test compounds and glutamate were diluted in assay buffer containing 10 mM HEPES acid, 10 mM HEPES salt, pH 7.4, 100 mM NaCl, 3 mM MgCl2 and 10 μM GDP. Human mGlu2 receptor-containing membranes were thawed on ice and diluted in assay buffer supplemented with 14 μg/ml saponin. Membranes were pre-incubated with compound alone or together with a predefined (˜EC20) concentration of glutamate (PAM assay) for 30 min at 30° C. After addition of [^35S]GTPγS (f.c. 0.1 nM), assay mixtures were shaken briefly and further incubated to allow [^35S]GTPγS incorporation on activation (30 minutes, 30° C.). Final assay mixtures contained 7 μg of membrane protein in 10 mM HEPES acid, 10 mM HEPES salt, pH 7.4, 100 mM NaCl, 3 mM MgCl2, 10 μM GDP and 10 μg/ml saponin. Total reaction volume was 200 μl. Reactions were terminated by rapid filtration through Unifilter-96 GF/B plates (Perkin Elmer, Mass., USA) using a 96-well filtermate universal harvester. Filters were washed 6 times with ice-cold 10 mM NaH2PO4/10 mM Na2HPO4, pH 7.4. Filters were then air-dried, and 40 μl of liquid scintillation cocktail (Microscint-O) was added to each well. Membrane-bound radioactivity was counted in a Microplate Scintillation and Luminescence Counter from Perkin Elmer.
The concentration-response curves of representative compounds of the present invention-obtained in the presence of EC20 of mGluR2 agonist glutamate to determine positive allosteric modulation (PAM)-were generated using the Lexis software interface (developed at J&J).

T1 sequence (Q14416 19-872): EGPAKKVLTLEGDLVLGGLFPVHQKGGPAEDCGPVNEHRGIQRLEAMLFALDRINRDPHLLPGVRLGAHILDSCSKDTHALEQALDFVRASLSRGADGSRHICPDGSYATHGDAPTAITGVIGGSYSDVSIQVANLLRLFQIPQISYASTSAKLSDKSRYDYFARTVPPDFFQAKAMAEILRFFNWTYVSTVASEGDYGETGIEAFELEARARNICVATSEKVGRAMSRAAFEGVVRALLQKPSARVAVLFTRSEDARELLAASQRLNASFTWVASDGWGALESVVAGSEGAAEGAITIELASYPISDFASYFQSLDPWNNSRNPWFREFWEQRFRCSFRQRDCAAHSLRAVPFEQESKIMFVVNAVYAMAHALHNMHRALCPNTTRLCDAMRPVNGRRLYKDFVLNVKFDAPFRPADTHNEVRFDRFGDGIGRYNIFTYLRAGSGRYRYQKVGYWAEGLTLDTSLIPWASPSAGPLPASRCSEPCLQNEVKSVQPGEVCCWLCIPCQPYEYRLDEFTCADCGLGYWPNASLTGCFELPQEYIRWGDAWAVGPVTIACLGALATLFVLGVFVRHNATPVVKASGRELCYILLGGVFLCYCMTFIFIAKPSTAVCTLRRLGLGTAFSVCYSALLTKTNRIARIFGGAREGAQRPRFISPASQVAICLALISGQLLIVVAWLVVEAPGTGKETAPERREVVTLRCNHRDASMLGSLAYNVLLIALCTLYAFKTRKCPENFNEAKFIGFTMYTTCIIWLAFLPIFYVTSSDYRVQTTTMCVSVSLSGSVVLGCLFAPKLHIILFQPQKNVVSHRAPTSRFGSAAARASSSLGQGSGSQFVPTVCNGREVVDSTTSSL

| EC50 [µM] | Emax [%] | Structure (SMILES) |
| --- | --- | --- |
| 0.871 | 267 | FC(F)(F)c1c(CN2CCO[C@H](c3ccccc3)C2)ccn2c(CC3CC3)nnc12 [Compound 2, 3-(Cyclopropylmethyl)-7-[[(2R)-2-phenyl-4-morpholinyl]methyl]-8-(trifluoromethyl)-1,2,4-triazolo[4,3-a]pyridine] |
| 0.324 | 294 | FC(F)(F)c1c(CN2CCO[C@@H](c3ccccc3)C2)ccn2c(CC3CC3)nnc12 [Compound 4, 3-(Cyclopropylmethyl)-7-[[(2S)-2-phenyl-4-morpholinyl]methyl]-8-(trifluoromethyl)-1,2,4-triazolo[4,3-c]pyridine] |
